Experimental data published in patent US20110178104A1, “Anti-Heparin Compounds” (POLYMEDIX INC., priority 2010, published 2011).

Assays:
tinzaparin = assay: FXa amidolytic assay (Example 10), tinzaparin; conditions: read-out: Tinzap FXa EC50; tinzaparin 0.1 ug/ml; human antithrombin, bovine Factor Xa
fondaparinux = assay: FXa amidolytic assay (Example 10), fondaparinux; conditions: read-out: Fondap FXa EC50; fondaparinux 0.02 μg/mL; human antithrombin, bovine Factor Xa
Unfractionated heparin = assay: aPTT clotting assay, UFH 0.4 U/mL in plasma (Example 10); type: biochemical; conditions: unfractionated heparin 0.4 U/mL in plasma; aPTT clotting
Experimental: aPTT clotting Assay: Unfractionated heparin was mixed with plasma at a final concentration of 0.4 U/mL (or concentration which increases aPTT time to between 120 and 300 seconds). […] The ACL Elite Hemostasis analyzer (Beckman Coulter™) was used to add aPTT reagent (HemosIL SynthASil) to supplemented plasma. Clotting was initiated by addition of CaCl2 and time to clot was recorded.

enoxaparin = assay: FXa amidolytic assay (Example 10), enoxaparin; conditions: read-out: Enox FXa EC50; enoxaparin 0.1 ug/ml; human antithrombin, bovine Factor Xa

EC50 (tinzaparin) [nM] | EC50 (fondaparinux) [nM] | EC50 (Unfractionated heparin) [nM] | EC50 (enoxaparin) [nM] | SMILES
99 | 3560 | 2310 | 192 | COc1ccc(NC(=O)[C@H](CCCCN)NC(=O)c2cc(NC(=O)[C@H](CCCCN)NC(=O)c3cc(NC(=O)[C@H](CCCCN)NC(=O)c4cc(NC(=O)[C@H](N)CCCCN)ccc4OC)ccc3OC)ccc2OC)cc1C(N)=O [Compound 231]
581 | 1860 | 5340 | 839 | COc1ccc(NC(=O)[C@H](CCCCN)NC(=O)c2cc(NC(=O)[C@H](CCCCN)NC(=O)c3cc(NC(=O)[C@H](CCCCN)NC(=O)c4c[nH]c5ccccc45)ccc3OC)ccc2OC)cc1C(N)=O [Compound 238]
> 5000 | > 10000 | > 10000 | > 5000 | COc1cc(OC)c(C(=O)N[C@H]2CC[C@@H](NC(=O)c3cc(C(=O)N4CCC(N)CC4)c(OC)cc3OC)CC2)cc1C(=O)N[C@H]1CC[C@@H](NC(=O)c2cc(C(=O)N3CCC(N)CC3)c(OC)cc2OC)CC1 [Compound 419]
> 5000 | > 10000 | > 10000 | > 5000 | COc1cc(OC)c(C(=O)NCCCNC(=O)c2cc(C(=O)NCCCNC(=O)c3cc(C(=O)NCCN)c(OC)cc3OC)c(OC)cc2OC)cc1C(=O)NCCN [Compound 391]
349 | 4050 | 1250 | 533 | COc1ccc(NC(=O)[C@H](CCCCN)NC(=O)c2cc(NC(=O)[C@H](CCCCN)NC(=O)c3cc(NC(=O)[C@H](CCCCN)NC(=O)c4cc(NC(=O)[C@@H](N)CCCCN)ccc4OC)ccc3OC)ccc2OCC(=O)O)cc1C(N)=O [Compound 270]
> 5000 | > 10000 | > 10000 | > 5000 | COc1cc(OC)c(C(=O)N2CCC(NC(=O)c3cc(C(=O)NCCN)c(OC)cc3OC)CC2)cc1C(=O)O [Compound 394]
> 5000 | > 10000 | > 10000 | > 5000 | COc1cc(OC)c(C(=O)N[C@H]2CC[C@@H](NC(=O)c3cc(C(=O)N4CCC(CN)CC4)c(OCCCCCN)cc3OCCCCCN)CC2)cc1C(=O)N[C@H]1CC[C@@H](N=C(N(C)C)N(C)C)CC1 [Compound 424]
446 | > 10000 | > 10000 | 1010 | COc1ccc(NC(=O)[C@H](CCCNC(=N)N)NC(=O)c2cc(NC(=O)[C@@H](N)CCCNC(=N)N)ccc2OC)cc1C(=O)N[C@@H](CCCNC(=N)N)C(=O)Nc1ccc(OC)c(C(=O)N[C@@H](CCCNC(=N)N)C(=O)Nc2ccc(OC)c(C(=O)N3CCC[C@H]3C(N)=O)c2)c1 [Compound 234]
313 | 6990 | 1670 | 543 | COc1ccc(NC(=O)[C@H](CCCCN)NC(=O)c2cc(NC(=O)[C@@H](N)CCCCN)ccc2OC)cc1C(=O)N[C@@H](CCCCN)C(=O)Nc1ccc(OC)c(C(=O)N[C@@H](CCCCN)C(=O)Nc2ccc(OC)c(C(=O)N[C@H](C(=O)O)C(C)C)c2)c1 [Compound 267]
> 5000 | > 10000 | > 10000 | > 5000 | COc1cc(OC)c(C(=O)N[C@H]2CC[C@H](NC(=O)c3cncc(C(=O)O)c3)CC2)cc1C(=O)NCCN [Compound 401]
134 | 775 | 1950 | 154 | COc1ccc(NC(=O)[C@@H](CCCNC(=N)N)NC(=O)c2cc(NC(=O)[C@@H](CCCNC(=N)N)NC(=O)c3cc(NC(=O)[C@@H](CCCNC(=N)N)NC(=O)c4cc(NC(=O)[C@H](N)CCCNC(=N)N)ccc4OC)ccc3OC)ccc2OC)cc1C(=O)NCCC(=O)O [Compound 279]
> 5000 | > 10000 | > 10000 | > 5000 | COc1ccc(NC(=O)[C@H](CCCCN)NC(=O)c2cc(NC(=O)[C@H](CCCCN)NC(=O)c3cc(NC(=O)[C@H](CCCCN)NC(=O)c4cc(NC(=O)[C@@H](N)CCCCN)ccc4OC)ccc3OC)ccc2SC)cc1C(N)=O [Compound 252]
285 | 4890 | 2420 | 901 | COc1ccc(NC(=O)[C@@H](CCCNC(=N)N)NC(=O)c2cc(NC(=O)[C@@H](CCC(=O)O)NC(=O)c3cc(NC(=O)[C@@H](CCCNC(=N)N)NC(=O)c4cc(NC(=O)[C@H](N)CCCNC(=N)N)ccc4OC)ccc3OC)ccc2OC)cc1C(N)=O [Compound 320]
401 | 2090 | > 10000 | 633 | COc1ccc(NC(=O)[C@H](CCCCN)NC(=O)c2cc(NC(=O)[C@H](CCCCN)NC(=O)c3cc(NC(=O)[C@H](CCCCN)NC(=O)c4cc(N)cc(C(F)(F)F)c4)ccc3OC)ccc2OC)cc1C(N)=O [Compound 240]
135 | 3120 | 1640 | 219 | COc1ccc(NC(=O)[C@H](CCCCN)NC(=O)c2cc(NC(=O)[C@H](CCCCN)NC(=O)c3cc(NC(=O)[C@H](CCCCN)NC(=O)c4cc(NC(=O)[C@@H](N)CCCCN)ccc4OC)ccc3OCC(=O)O)ccc2OC)cc1C(N)=O [Compound 271]
492 | > 10000 | 2050 | 1790 | COc1ccc(NC(=O)[C@H](CCC(=O)O)NC(=O)c2cc(NC(=O)[C@H](CCCCN)NC(=O)c3cc(NC(=O)[C@H](CCCCN)NC(=O)c4cc(NC(=O)[C@@H](N)CCCCN)ccc4OC)ccc3OC)ccc2OC)cc1C(N)=O [Compound 315]
113 | 197 | 687 | 125 | COc1cc(OC)c(C(=O)N[C@H]2CC[C@@H](NC(=O)c3cc(C(N)=O)c(OCCCCCN)cc3OCCCCCN)CC2)cc1C(=O)N[C@H]1CC[C@@H](NC(=O)c2cc(C(N)=O)c(OCCCCCN)cc2OCCCCCN)CC1 [Compound 412]
147 | 167 | 2350 | 153 | COc1ccc(NC(=O)[C@H](CCCCN)NC(=O)c2cc(NC(=O)[C@H](CCCCN)NC(=O)c3cc(NC(=O)[C@H](CCCCN)NC(=O)c4cc(NC(=O)[C@H](CCCCN)NC(=O)c5cccc(C(=O)O)c5)ccc4OC)ccc3OC)ccc2OC)cc1C(N)=O [Compound 342]
359 | – | 12100 | 1060 | COc1cc(OC)c(C(=O)N[C@H]2CC[C@@H](NC(=O)c3cc(C(=O)NCCN(C)C)c(OCCNC(=N)N)cc3OCCNC(=N)N)CC2)cc1C(=O)N[C@H]1CC[C@@H](NC(=O)c2cc(C(=O)NCCN(C)C)c(OCCNC(=N)N)cc2OCCNC(=N)N)CC1 [Compound 225]
343 | – | 12900 | 852 | COc1cc(OC)c(C(=O)N[C@H]2CC[C@H](NC(=O)c3cc(C(=O)NCCN(C)C)c(OCCNC(=N)N)cc3OCCNC(=N)N)CC2)cc1C(=O)N[C@H]1CC[C@H](NC(=O)c2cc(C(=O)NCCN(C)C)c(OCCNC(=N)N)cc2OCCNC(=N)N)CC1 [Compound 226]
174 | 1830 | – | 225 | CCOC(=O)CC(=O)N[C@@H](CCCCN)C(=O)Nc1ccc(OC)c(C(=O)N[C@@H](CCCCN)C(=O)Nc2ccc(OC)c(C(=O)N[C@@H](CCCCN)C(=O)Nc3ccc(OC)c(C(=O)N[C@@H](CCCCN)C(=O)Nc4ccc(OC)c(C(N)=O)c4)c3)c2)c1 [Compound 337]

SMILES | EC50 (tinzaparin) [nM] | EC50 (fondaparinux) [nM] | EC50 (Unfractionated heparin) [nM] | EC50 (enoxaparin) [nM]
COc1ccc(NC(=O)[C@H](CCCCN)NC(=O)c2cc(NC(=O)[C@H](CCCCN)NC(=O)c3cc(NC(=O)[C@H](CCCCN)NC(=O)c4ccc(NC(=O)[C@@H](N)CCCCN)cc4)ccc3OC)ccc2OC)cc1C(N)=O [Compound 241] | 167 | > 10000 | 5440 | 431
